Read-outs that look alike come from different tables or passages of the source.
How the values were obtained:
mice = assay: Determination of the prolongation of the bleeding time; format: in vivo; settings: 10 mgm/kg orally, awake mice, compared with untreated control group
Description: 2. determination of the prolongation of the bleeding time:
To determine the effect on the bleeding time, 10 mgm/kg of the test compound were administered orally to awake, unanesthetized mice. After 1 hour, and again after 3 hours, about 0.5 mm from the end of the tail of each animal was cut off, and the exuded blood was carefully soaked up into filter paper every 30 seconds. The number of drops of blood so obtained provided a measure for the bleeding time (5 animals/experiment).
The numbers in Table II represent the prolongation in %, compared with an untreated control group: […]

[1] = Acute toxicity in white mice after oral application of a single dose; format: in vivo; settings: mouse, in vivo, observation time 14 days
Description: (§1) The acute toxicity of the compounds was determined in white mice (observation time: 14 days) after oral application of a single dose: […]

white mice = assay: as above; format: in vivo; settings: 1000 mgm/kg, observation time 14 days
Description: as §1

[2] = test system: platelet-rich plasma of healthy human donors; assay: Determination of platelet aggregation by the method of Born and Cross (collagen-induced, platelet-rich plasma); format: cell-based; settings: 10^-4 mol/lit., compared with control batch without test compound; for inhibition at 100 µM: Homo sapiens, Platelet
Description: 1. Determination of platelet aggregation by the method of Born and Cross (see J. Physiol. 170, 397 (1964)):
The platelet aggregation was measured in the platelet-rich plasma of healthy human donors. The alterations of the optical density of the platelet suspension was measured and recorded photometrically after the addition of commercial collagen manufactured by Hormonchemie, Munich, Germany, containing 1 mgm of collagen fibrils per ml. From the angle of inclination of the density curve, the rate of aggregation was estimated (Vmax). The optical density (O.D.) was taken at the point on the curve where the most light was transmitted. Small doses of collagen were chosen, but sufficient to give irreversible aggregation. To provoke maximum aggregation, about 0.01 ml of the collagen solution was added to 1 ml of platelet-rich plasma.
The numbers in Table I represent the % reduction in the aggregation rate (Vmax) and the % change in optical density (O.D.), compared with a control batch without addition of a test compound.

[3] = read-out: % Reduction (change) in optical density (O.D.)
[4] = read-out: % Reduction in the aggregation rate (Vmax)

Row | SMILES | Prolongation of the bleeding time in % after 1 hour (mice) | Prolongation of the bleeding time in % after 3 hours (mice) | LD50 at 336 h [1] | Acute toxicity: animals died (white mice) | inhibition at 100 µM [2, 3] | inhibition at 100 µM [2, 4] | % Reduction (change) in optical density (O.D.) ([2]; 100 µM) | % Reduction in the aggregation rate (Vmax) ([2]; 100 µM)
1 | COC(=O)C[S+]([O-])C(C)c1ccc(C2CCCCC2)cc1 (stereo not drawn) [B, methyl [1-(4'-cyclohexyl-phenyl)-ethylsulfinyl]-acetate] | 117% | 51% | > 1000 mg/kg | 0 out of 10 |  |  |  | 
2 | COC(=O)C[S+]([O-])C(C)c1ccc(C2CCCCC2)c(Cl)c1 (stereo not drawn) [C, methyl [1-(3'-chloro-4'-cyclohexyl-phenyl)-ethylsulfinyl]-acetate] |  |  |  |  | 89% | 85% |  | 
3 | CC(c1ccc(C2CCCCC2)cc1)[S+]([O-])CC(=O)O (stereo not drawn) [Compound A, [1-(4'-cyclohexyl-phenyl)-ethylsulfinyl]-acetic acid] | 300% | 122% | > 1000 mg/kg | 0 out of 10 |  |  |  | 
4 | CCOC(=O)C[S+]([O-])C(C)c1ccc(C2CCCCC2)c(Cl)c1 (stereo not drawn) [D, Ethyl [1-(3'-chloro-4'-cyclohexyl-phenyl)-ethylsulfinyl]-acetate] | 49% |  |  |  |  |  | 89% | 87%
5 | CC(c1ccc(C2CCCCC2)c(Cl)c1)[S+]([O-])CC(=O)N1CCCCC1 (stereo not drawn) [E, [1-(3'-chloro-4'-cyclohexyl-phenyl)-ethylsulfinyl]-acetic acid piperidide] | 37% |  | > 1000 mg/kg | 0 out of 10 | 92% | 90% |  | 

Reference: patent publication US4062973A, “Sulfur-containing derivatives of cyclohexylphenyl-ethane” (Boehringer Ingelheim GmbH, priority 1975, dated 1977)
